Data from PubChem BioAssay (NCI).
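Growth conditions: 96-well plates. Treatment: test compound, 48 hours, 5 concentrations. Analysis: linear interpolation between bracketing concentrations; unreached endpoints set to highest concentration. TGI: concentration producing complete growth inhibition.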

Key:
Test in all cases: NCI tumour cell line growth inhibition, 48 h
BT-549 breast = test system: BT-549 breast
LXFL 529 NSCLC = test system: LXFL 529 NSCLC
RXF-631 renal = test system: RXF-631 renal
NCI/ADR-RES ovarian = test system: NCI/ADR-RES ovarian
DU-145 prostate = test system: DU-145 prostate
HOP-18 NSCLC = test system: HOP-18 NSCLC
SN12K1 renal = test system: SN12K1 renal
A498 renal = test system: A498 renal
P388 leukemia = test system: P388 leukemia
P388/ADR leukemia = test system: P388/ADR leukemia

## COC1/C=C/C=C(/C)Cc2cc(O)c(Cl)c(c2)N(C)C(=O)CC(OC(=O)C(C)C)C2(C)OC2C(C)C2CC1(O)NC(=O)O2 (configuration not stated)
BT-549 breast
  TGI: 49.4 µM

## CCOC(=O)c1nc2ccc(OC)cc2c2c1Cc1ccccc1-2
LXFL 529 NSCLC
  TGI: > 100 µM
RXF-631 renal
  TGI: > 100 µM

## O=C1CC(/C=C/c2ccco2)=C(O)C1=O
NCI/ADR-RES ovarian
  TGI: > 100 µM
BT-549 breast
  TGI: 23.6 µM
DU-145 prostate
  TGI: 32.5 µM

## CC(=O)C(=O)NC1/C=C(C)\C=C/C(O)C/C=C(C)\C=C/C(O)CC2OC(=O)C1(C)C(=O)C2C (configuration not stated)
HOP-18 NSCLC
  TGI: > 100 µM
NCI/ADR-RES ovarian
  TGI: > 100 µM
SN12K1 renal
  TGI: > 100 µM
A498 renal
  TGI: > 100 µM
P388 leukemia
  TGI: > 48.2 µM
P388/ADR leukemia
  TGI: > 66.6 µM
